# Laboratory results published in US20260294884A1 (Insilico Medicine IP Limited, priority 2023, published 2026).
# Tested on: Caco-2 cells
# Assay: Permeability, Caco-2 assay
# Type: in vitro ADME
# Conditions: Caco-2, bi-directional, pH 7.40, 2 hours, 37 °C
# Protocol: Permeability of test compounds was determined in Caco-2 Assay. Caco-2 cells purchased from ATCC were seeded onto […] membranes (PET) in 96-well Corning Insert plates at 1×10^5 cells/cm^2, and refreshed medium every 4~5 days until to the 21st to 28th day for confluent cell monolayer formation. The transport buffer in the study was HBSS with 10.0 mM HEPES at pH 7.40±0.05. Test compound was tested at […] bi-directionally in duplicate. Digoxin was tested at 10.0 μM bi-directionally in duplicate, while nadolol and metoprolol were tested at 2.00 μM in A to B direction in duplicate. Final DMSO concentration was adjusted to less than 1%. The plate was incubated for 2 hours in CO2 incubator at 37±1° C., with 5% CO2 at saturated humidity without shaking. And all samples after mixed with acetonitrile containing internal standard were centrifuged at 3200×g for 10 min. For nadolol and metoprolol, 200 μL supernatant solution was diluted with 600 μL ultra-pure water for LC-MS/MS analysis. For digoxin and test compounds, 200 μL supernatant solution was diluted with 200 μL ultra-pure water for LC-MS/MS analysis. Concentrations of test and control compounds in starting solution, donor solution, and receiver solution were quantified by LC-MS/MS methodologies, using peak area ratio of analyte/internal standard. After transport assay, lucifer yellow rejection assay was applied to determine the Caco-2 cell monolayer integrity.
row,SMILES,Efflux Ratio
1,"COc1cccc(OC)c1S(=O)(=O)Nc1noc2cc(Oc3ccccn3)c3c(c12)OCCC3 [Compound 24, 2,6-dimethoxy-N-(5-(pyridin-2-yloxy)-3,4-dihydro-2H-chromeno[8,7-d]isoxazol-9-yl)benzenesulfonamide]",3.2

# Same assay, conditions: Caco-2, pH 7.40, 2 hours, 37 °C, A to B
row,SMILES,Mean Papp A to B
1,"COc1cccc(OC)c1S(=O)(=O)Nc1noc2cc(Oc3ccccn3)cc(OC)c12 [Compound 9, 2,6-dimethoxy-N-(4-methoxy-6-(pyridin-2-yloxy)benzo[d]isoxazol-3-yl)benzenesulfonamide]",11.8 10^-6 cm/s
2,"COc1cccc(OC)c1S(=O)(=O)Nc1noc2cc(Cn3cccn3)c3c(c12)OCCC3 [Compound 14, N-(5-((1H-pyrazol-1-yl)methyl)-3,4-dihydro-2H-chromeno[8,7-d]isoxazol-9-yl)-2,6-dimethoxybenzenesulfonamide]",0.439 10^-6 cm/s
3,"COc1cccc(OC)c1S(=O)(=O)Nc1noc2cc(Cn3cccn3)c3c(c12)OCCCC3 [Compound 19, N-(6-((1H-pyrazol-1-yl)methyl)-2,3,4,5,9,10-hexahydrooxepino [3′,2′: 5,6]benzo[1,2-d]isoxazol-10-yl)-2,6-dimethoxybenzenesulfonamide]",3.47 10^-6 cm/s
4,"COc1cccc(OC)c1S(=O)(=O)Nc1noc2cc(Oc3ccccn3)cc(OC(F)F)c12 [Compound 22, N-(4-(difluoromethoxy)-6-(pyridin-2-yloxy)benzo[d]isoxazol-3-yl)-2,6-dimethoxybenzenesulfonamide]",3.45 10^-6 cm/s
5,"COc1cccc(OC)c1S(=O)(=O)Nc1noc2cc(Oc3ccccn3)c3c(c12)OCC3 [Compound 23, 2,6-dimethoxy-N-(4-(pyridin-2-yloxy)-2,3-dihydrobenzofuro[7,6-d]isoxazol-8-yl)benzenesulfonamide]",1.30 10^-6 cm/s
6,"COc1cccc(OC)c1S(=O)(=O)Nc1noc2cc(Oc3ccccn3)c3c(c12)OCCC3 [Compound 24, 2,6-dimethoxy-N-(5-(pyridin-2-yloxy)-3,4-dihydro-2H-chromeno[8,7-d]isoxazol-9-yl)benzenesulfonamide]",12.9 10^-6 cm/s
7,"COc1ccnc(OC)c1S(=O)(=O)Nc1noc2cc(Oc3ccccn3)c3c(c12)OCCC3 [Compound 28, 2,4-dimethoxy-N-(5-(pyridin-2-yloxy)-3,4-dihydro-2H-chromeno[8,7-d]isoxazol-9-yl)pyridine-3-sulfonamide]",2.38 10^-6 cm/s
8,"COc1cccc(OC)c1S(=O)(=O)Nc1noc2cc(Cc3ccccn3)c3c(c12)OCCC3 [Compound 46, 2,6-dimethoxy-N-(5-(pyridin-2-ylmethyl)-3,4-dihydro-2H-chromeno[8,7-d]isoxazol-9-yl)benzenesulfonamide]",2.66 10^-6 cm/s
9,COc1cccc(OC)c1S(=O)(=O)Nc1noc2cc(Cc3nccs3)c3c(c12)OCCC3 [Compound 47],3.53 10^-6 cm/s
10,"COc1cc(C)nc(OC)c1S(=O)(=O)Nc1noc2cc(Oc3nccs3)cc(OCF)c12 [Compound 55, N-(4-(fluoromethoxy)-6-(thiazol-2-yloxy)benzo[d]isoxazol-3-yl)-2,4-dimethoxy-6-methylpyridine-3-sulfonamide]",1.46 10^-6 cm/s
11,"COc1ccccc1S(=O)(=O)Nc1noc2cc(Oc3nccs3)cc(OCF)c12 [Compound 56, N-(4-(fluoromethoxy)-6-(thiazol-2-yloxy)benzo[d]isoxazol-3-yl)-2-methoxybenzenesulfonamide]",5.28 10^-6 cm/s
12,"COc1cccc(OC)c1S(=O)(=O)Nc1noc2cc(Oc3nccs3)cc(OC)c12 [Compound 59, 2,6-dimethoxy-N-(4-methoxy-6-(thiazol-2-yloxy)benzo[d]isoxazol-3-yl)benzenesulfonamide]",6.20 10^-6 cm/s
13,"COc1ccccc1S(=O)(=O)Nc1noc2cc(Oc3nccs3)cc(OC)c12 [Compound 60, 2-methoxy-N-(4-methoxy-6-(thiazol-2-yloxy)benzo[d]isoxazol-3-yl)benzenesulfonamide]",13.7 10^-6 cm/s
14,"COc1ccccc1S(=O)(=O)Nc1noc2cc(Oc3nccs3)c3c(c12)OCCC3 [Compound 61, 2-methoxy-N-(5-(thiazol-2-yloxy)-3,4-dihydro-2H-chromeno[8,7-d]isoxazol-9-yl)benzenesulfonamide]",9.38 10^-6 cm/s
